Measurements reported in PMC8373216, “Development and Preclinical Evaluation of New Inhaled Lipoglycopeptides for the Treatment of Persistent Pulmonary Methicillin-Resistant Staphylococcus aureus Infections” (Antimicrobial Agents and Chemotherapy, 2021).
In brackets after ≈: the same amount, converted by molar mass. Where two headings read alike, the source gives them in different places.

What was measured:
[1] = Single-dose nebulized nose-only inhalation PK in healthy rats; assay type: in vivo, rat; details: single nebulized nose-only inhaled dose, healthy rats
Procedure: Rats were acclimated in the study facility for approximately 1 week prior to study start. Ten or eleven rats per cohort were loaded into the chamber at the time of dosing. […] An additional airflow set to 6 liters/min was admixed with the nebulizer output to further direct the test articles to the animals. […] The remaining port on the chamber was fit with an aerosol sampling filter for dose determination over a 5 min sampling period. The average dose delivered to the nose of each animal was calculated using an algorithm that was previously described ([49]). […] Animals were euthanized for collection of whole lungs and plasma at time points ranging from immediate postdose (IPD; approximately 30 min after dosing for nebulization) to 168 h postdose (7 days). Drugs were extracted from tissues using customized protein precipitation methods with an appropriate internal standard for each compound and transferred for analysis by LC-MS/MS (Sciex API4500 or API6500+ mass spectrometer [Sciex, Framingham, MA]). GraphPad Prism (La Jolla, CA) was used for statistical analyses and data plotting. […] The data were applied to a noncompartmental analysis after extravascular dosing input and fit to a linear up/log down model. Statistical analysis of in vitro intracellular and biofilm activity was based on a two-way ANOVA with a Bonferroni post test. In vivo statistical analysis was based on the Kolmogorov-Smirnov test.

[2] = test system: Staphylococcus haemolyticus; assay: Expanded panel broth microdilution MIC; assay type: cell-based
[3] = test system: Staphylococcus hominis; assay: Expanded panel broth microdilution MIC; assay type: cell-based
[4] = test system: Streptococcus pneumoniae; assay: Expanded panel broth microdilution MIC/MBC; assay type: cell-based
[5] = test system: Streptococcus oralis; assay: Expanded panel broth microdilution MIC; assay type: cell-based
[6] = test system: Peptostreptococcus anaerobius; assay: Expanded panel broth microdilution MIC; assay type: cell-based
[7] = test system: Cutibacterium acnes; assay: Expanded panel broth microdilution MIC; assay type: cell-based
[8] = test system: K. pneumoniae; assay: Expanded panel broth microdilution MIC; assay type: cell-based
[9] = test system: P. vulgaris; assay: Expanded panel broth microdilution MIC; assay type: cell-based; details: Proteus vulgaris
[10] = test system: E. cloacae; assay: Expanded panel broth microdilution MIC; assay type: cell-based; details: Enterobacter cloacae
[11] = test system: Pseudomonas aeruginosa; assay: Expanded panel broth microdilution MIC; assay type: cell-based
[12] = test system: Burkholderia cepacia; assay: Expanded panel broth microdilution MIC; assay type: cell-based
[13] = test system: Acinetobacter baumannii; assay: Expanded panel broth microdilution MIC; assay type: cell-based
[14] = test system: Moraxella catarrhalis; assay: Expanded panel broth microdilution MIC; assay type: cell-based
[15] = test system: MRSA (ATCC BAA 1556; USA300); assay: Acute pulmonary MRSA infection in neutropenic rats, nebulized nose-only inhalation; assay type: in vivo, Staphylococcus aureus; details: inhaled at 24 and 32 h postinfection, lungs at 48 h, 49.8 mg/kg delivered
Procedure: Rats were rendered neutropenic with intraperitoneal (i.p.) cyclophosphamide on day −4 (150 mg/kg) and day −1 (100 mg/kg) relative to the challenge. On day 0 at 0 h, rats were challenged with MRSA via intranasal instillation at a target titer of 8.0 to 8.3 log10 CFU. At 24 and 32 h postchallenge, rats were loaded into a 12-port inhalation dosing tower, where they received nebulized drug or vehicle control treatments by nose-only inhalation. Animals were euthanized at 48 h postinfection for enumeration of lung MRSA titer. MRSA lung titer of test article treatments versus control is plotted for three separate experiments. […] Statistics are based on the Kolmogorov-Smirnov test for drug treatment versus control (RV94, P = 0.01). LOD = 2.1 log10 CFU/lungset.
Male Sprague Dawley rats (Envigo, Indianapolis, IN) weighing between 225 and 250 g were used in these studies. Rats were housed and acclimated to the study facility as described in the PK methods section. Rats were rendered neutropenic through a series of intraperitoneal cyclophosphamide (Sigma-Aldrich) injections on day −4 (150 mg/kg) and day −1 (100 mg/kg) relative to the challenge. On day 0 at 0 h, rats were challenged with MRSA ATCC BAA 1556 via intranasal instillation at a target titer of 8.0 to 8.3 log10 CFU using optical density and back-counting inoculum CFU. To prepare the inoculum, a frozen aliquot of the organism stored at −80°C was thawed, transferred into TSB, and incubated at 37°C while shaking for 16 h. Cultures were then centrifuged at 2,000 × g for 5 min, and the resulting pellet was resuspended in PBS and equilibrated. For the challenge procedure, rats were first anesthetized through use of 2 to 5% isoflurane in 100% oxygen, then restrained with a scruff grip and a total of 200 μl of inoculum was quickly introduced to one nare. The rat was held in a vertical position until the challenge was fully inhaled. Rats were monitored following challenge to ensure that normal respiration was achieved and then returned to their cage. […] At necropsy, whole lungs were aseptically removed and lung weights were recorded. […]

With `CN[C@H](CC(C)C)C(=O)N[C@H]1C(=O)N[C@@H](CC(N)=O)C(=O)N[C@H]2C(=O)N[C@H]3C(=O)N[C@H](C(=O)N[C@H](C(=O)O)c4cc(O)cc(O)c4-c4cc3ccc4O)[C@H](O)c3ccc(c(Cl)c3)Oc3cc2cc(c3O[C@@H]2O[C@H](CO)[C@@H](O)[C@H](O)[C@H]2O[C@H]2C[C@](C)(N)[C@H](O)[C@H](C)O2)Oc2ccc(cc2Cl)[C@H]1O` [Vancomycin, vancomycin] the half-life ([1]; male, Sprague Dawley, rat, in vivo, inhaled or intranasal, noncompartmental analysis, read-out: Lung t1/2 (converted)) was 23 h, the Kp ([1]; male, Sprague Dawley, rat, in vivo, inhaled or intranasal, read-out: Lung: Plasma Cmax ratio) was 4 and the Cmax ([1]; male, Sprague Dawley, rat, in vivo, inhaled or intranasal, read-out: Plasma Cmax) was 8000 ng/mL. For the same molecule, the Pulmonary dose ([1]; measured directly in lung tissue) was 0.20 mg/kg, the “Lung AUC0-∞” value [1] was 671 µg·h/g and the “Lung Cmax” value [1] was 31 µg/g. For the same molecule, the MIC [2] was 1 µg/mL (≈ 0.69 µM), the MIC ([2]; ATCC29970) was 1 µg/mL (≈ 0.69 µM) and the MIC [3] was 0.5 µg/mL (≈ 0.345 µM). For the same molecule, the MIC ([3]; ATCC27844) was 0.5 µg/mL (≈ 0.345 µM), the “MIC:MBC” value ([4]; S. pneumoniae PISP, MBC on one organism) was 8 and the MIC ([4]; S. pneumoniae PRSP, 1 isolate) was 0.25 µg/mL (≈ 0.173 µM). It also gave an MIC ([4]; Streptococcus pneumoniae) of 0.12 µg/mL (≈ 0.0828 µM), an MIC ([4]; Streptococcus pneumoniae, ATCC49619) of 1 µg/mL (≈ 0.69 µM) and an MIC ([4]; Streptococcus pneumoniae, PRSP) of 0.25 µg/mL (≈ 0.173 µM). It also gave an MIC ([4]; Streptococcus pneumoniae, read-out: MIC (median)) of 0.6 µg/mL (≈ 0.414 µM), an MIC ([5]; S. oralis MGS, 1 isolate) of 0.5 µg/mL (≈ 0.345 µM) and an MIC ([5]; Streptococcus oralis) of 0.5 µg/mL (≈ 0.345 µM). For the same molecule, the MIC [6] was 0.12 µg/mL (≈ 0.0828 µM), the MIC ([6]; ATCC27337) was 0.12 µg/mL (≈ 0.0828 µM) and the MIC ([7]; ATCC6919) was 0.25 µg/mL (≈ 0.173 µM). For the same molecule, the MIC ([7]; ATCC11827) was 0.12 µg/mL (≈ 0.0828 µM), the MIC ([7]; read-out: MIC (median)) was 0.19 µg/mL (≈ 0.131 µM) and the MIC ([8]; K. pneumoniae MMX 4679, KPC-2) was over 64 µg/mL. The MIC ([8]; Klebsiella pneumoniae) was over 64 µg/mL, the MIC [9] was over 64 µg/mL and the MIC ([10]; ATCC49141) was over 64 µg/mL. It also gave an MIC ([10]; ATCCBAA1143) of over 64 µg/mL, an MIC [11] of over 64 µg/mL and an MIC ([11]; ATCC27853) of over 64 µg/mL. For the same molecule, the MIC [12] was over 64 µg/mL, the MIC ([13]; A. baumannii MMX 6974, colistinR) was over 64 µg/mL and the MIC ([13]; Acinetobacter baumannii) was over 64 µg/mL. It also gave an MIC ([13]; Acinetobacter baumannii, NCTC13304) of over 64 µg/mL, an MIC [14] of 16 µg/mL (≈ 11 µM) and an MIC ([14]; ATCC8176) of 32 µg/mL (≈ 22.1 µM). For the same molecule, the MIC ([14]; ATCC8193) was 64 µg/mL (≈ 44.2 µM) and the “Average increase in lung MRSA titer versus inhaled vehicle control” value [15] was 0.1 log10 CFU.
